Target: T1, cholesterol esterase (CE) (Homo sapiens, UniProt P19835)
T1 sequence (P19835 21-753): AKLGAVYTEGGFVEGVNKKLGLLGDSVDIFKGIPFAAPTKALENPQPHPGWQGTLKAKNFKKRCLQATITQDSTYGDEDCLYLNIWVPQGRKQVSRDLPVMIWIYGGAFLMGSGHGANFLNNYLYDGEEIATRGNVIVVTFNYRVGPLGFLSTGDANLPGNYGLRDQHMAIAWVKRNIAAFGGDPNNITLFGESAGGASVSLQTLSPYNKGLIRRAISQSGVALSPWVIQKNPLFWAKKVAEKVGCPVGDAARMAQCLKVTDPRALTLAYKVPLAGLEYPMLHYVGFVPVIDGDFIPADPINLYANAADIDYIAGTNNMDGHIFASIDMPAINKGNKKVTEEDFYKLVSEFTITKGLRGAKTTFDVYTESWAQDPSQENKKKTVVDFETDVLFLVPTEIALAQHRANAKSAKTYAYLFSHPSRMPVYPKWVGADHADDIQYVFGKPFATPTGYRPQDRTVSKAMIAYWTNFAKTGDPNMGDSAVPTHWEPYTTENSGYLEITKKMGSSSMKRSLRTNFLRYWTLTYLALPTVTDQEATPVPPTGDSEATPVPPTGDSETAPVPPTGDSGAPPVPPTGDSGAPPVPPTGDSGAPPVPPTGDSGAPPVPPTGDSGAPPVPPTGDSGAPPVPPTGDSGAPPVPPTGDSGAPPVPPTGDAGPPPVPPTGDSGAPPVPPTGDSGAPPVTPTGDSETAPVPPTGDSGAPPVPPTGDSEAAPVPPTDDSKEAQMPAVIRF
Test: Kinetic inhibition studies of cholesterol esterase (CE), substrate p-nitrophenylbutyrate, Dixon plots
Type: biochemical
Conditions: for inhibition of CE: kinetic inhibition studies, result in words

## O=c1oc(Cl)ccc1CC1CCCCC1 [Example 2]
  inhibition of CE: potent inhibitors of CE

## O=c1oc(Cl)ccc1CCC1CCCCC1 [Example 3, 3-(2-cyclohexylethyl)-6-chloropyronle]
1/V v [I] plots intersect above the x-axis, FIG. 6
  mode of inhibition of CE: competitive inhibition
  inhibition of CE: potent inhibitors of CE
Printed as "<<30", inferred because calculated Ki equals [E]/2, read-out: actual Ki for CE (suggested)
  Ki: < 0.03 µM

## O=c1oc(Cl)ccc1CCCC1CCCCC1 [Example 4]
  inhibition of CE: potent inhibitors of CE
